These results are taken from PubChem BioAssay AID1259407 (Chemical Carcinogenesis Research Information System (CCRIS), 2018).

Structures are written as SMILES. Active and inactive are the calls of the source. The rule behind the calls is not given here.

The data set concerns CCRIS mutagenicity, Ames/micronucleus/aberration tests. Description: CCRIS mutagenicity studies.
Setting [1] is: Test System: AMES SALMONELLA TYPHIMURIUM, Strain/Indicator: TA97, Metabolic Activation: NONE, Method: PREINCUBATION
Where [2] appears, read: Test System: AMES SALMONELLA TYPHIMURIUM, Strain/Indicator: TA98, Metabolic Activation: NONE, Method: PREINCUBATION
[3] abbreviates: Test System: AMES SALMONELLA TYPHIMURIUM, Strain/Indicator: TA100, Metabolic Activation: NONE, Method: PREINCUBATION
Where [4] appears, read: Test System: AMES SALMONELLA TYPHIMURIUM, Strain/Indicator: TA1535, Metabolic Activation: NONE, Method: PREINCUBATION

With `C=CCSSCCC`, the mutagenic call (Test System: AMES SALMONELLA TYPHIMURIUM, Strain/Indicator: TA97, Metabolic Activation: HAMSTER, LIVER, S-9, AROCLOR 1254 (10 OR 30%), Method: PREINCUBATION) is “inactive; negative”; the mutagenic call under setting [1] is “inactive; negative”; the mutagenic call (Test System: AMES SALMONELLA TYPHIMURIUM, Strain/Indicator: TA97, Metabolic Activation: RAT, LIVER, S-9, AROCLOR 1254 (10 OR 30%), Method: PREINCUBATION) was “inactive; negative”; the mutagenic call (Test System: AMES SALMONELLA TYPHIMURIUM, Strain/Indicator: TA98, Metabolic Activation: HAMSTER, LIVER, S-9, AROCLOR 1254 (10 OR 30%), Method: PREINCUBATION) is “inactive; negative”; the mutagenic call under setting [2] is “inactive; negative”; the mutagenic call (Test System: AMES SALMONELLA TYPHIMURIUM, Strain/Indicator: TA98, Metabolic Activation: RAT, LIVER, S-9, AROCLOR 1254 (10 OR 30%), Method: PREINCUBATION) is “inactive; negative”. Moreover, the mutagenic call was “inactive; negative” (Test System: AMES SALMONELLA TYPHIMURIUM, Strain/Indicator: TA100, Metabolic Activation: HAMSTER, LIVER, S-9, AROCLOR 1254 (10 OR 30%), Method: PREINCUBATION); “inactive; negative” under setting [3]; “inactive; negative” (Test System: AMES SALMONELLA TYPHIMURIUM, Strain/Indicator: TA100, Metabolic Activation: RAT, LIVER, S-9, AROCLOR 1254 (10 OR 30%), Method: PREINCUBATION); “inactive; negative” (Test System: AMES SALMONELLA TYPHIMURIUM, Strain/Indicator: TA1535, Metabolic Activation: HAMSTER, LIVER, S-9, AROCLOR 1254 (10 OR 30%), Method: PREINCUBATION); “inactive; negative” under setting [4]; “inactive; negative” (Test System: AMES SALMONELLA TYPHIMURIUM, Strain/Indicator: TA1535, Metabolic Activation: RAT, LIVER, S-9, AROCLOR 1254 (10 OR 30%), Method: PREINCUBATION).

For the molecule `O=C1c2c(O)cc(O)cc2O[C@H](c2ccc(O)c(O)c2)[C@H]1O`, the mutagenic call (Test System: Ames Salmonella typhimurium, Strain/Indicator: TA102, Metabolic Activation: Fe ++ (1 uM) with NADPH generating system, Method: Preincubation) is “inactive; negative”; the mutagenic call (Test System: Ames Salmonella typhimurium, Strain/Indicator: TA102, Metabolic Activation: None, Method: Preincubation) was “inactive; negative”; the mutagenic call (Test System: Ames Salmonella typhimurium, Strain/Indicator: TA102, Metabolic Activation: Rat, Liver, S-9, Aroclor 1254, Method: Preincubation) was “inactive; negative”; the mutagenic call (Test System: Ames Salmonella typhimurium, Strain/Indicator: TA102, Metabolic Activation: Rat, Liver, S-9, Aroclor 1254 in 0.154 M KCl, Method: Preincubation) was “inactive; negative”; the mutagenic call (Test System: E. coli, Strain/Indicator: WP2 uvrA, Metabolic Activation: Fe ++ (1 uM) with NADPH generating system, Method: Preincubation) is “inactive; negative. authors say results are positive at 100 and 250 um but results are bar”; the mutagenic call (Test System: E. coli, Strain/Indicator: WP2 uvrA, Metabolic Activation: None, Method: Preincubation) is “inactive; negative”. The mutagenic call (Test System: E. coli, Strain/Indicator: WP2 uvrA, Metabolic Activation: Rat, Liver, S-9, Aroclor 1254, Method: Preincubation) is “inactive; negative”.

For the molecule `O=[As](O)(O)O`, the mutagenic call runs as follows: (End Point: IN VITRO CHROMOSOMAL ABERRATIONS, Test System: CHINESE HAMSTER OVARY (CHO), Metabolic Activation: NONE) “active; positive (structural changes: gaps, breaks)”; (End Point: IN VITRO MICRONUCLEUS, Test System: CHINESE HAMSTER V-79, Metabolic Activation: NONE) “active; positive”; (End Point: In vitro chromosomal aberrations, Test System: Human peripheral lymphocytes, Metabolic Activation: None) “active; positive”; (End Point: In vitro micronucleus, Test System: Human peripheral lymphocytes, Metabolic Activation: None) “active; positive”; (End Point: In vivo micronucleus, Test System: Bone marrow polychromatic erythrocytes, Species: Mouse, Strain/Sex: C57BI/6J/Female, Route: Oral) “inactive; negative”; (Test System: AMES SALMONELLA TYPHIMURIUM, Strain/Indicator: TA102, Metabolic Activation: NONE, Method: STANDARD PLATE) “inactive; negative”. Further, the mutagenic call is, setting by setting: (Test System: CHINESE HAMSTER V-79, Strain/Indicator: SP5 V-79 (HPRT)/6-THIOGUANINE, Metabolic Activation: NONE, Method: STANDARD PLATE) “inactive; negative”; (Test System: CHINESE HAMSTER V-79, Strain/Indicator: SPD8 V-79 (HPRT)/6-THIOGUANINE, Metabolic Activation: NONE, Method: STANDARD PLATE) “active; positive”; (Test System: E. COLI, Strain/Indicator: WP2 UVRA, Metabolic Activation: NONE, Method: SPOT TEST) “inactive; negative”; (Test System: MOUSE LYMPHOMA, Strain/Indicator: L5178Y (TK+/TK-), Metabolic Activation: NONE, Method: SUSPENSION/PLATE) “active; positive”.

Consider `CCC(C)(C)c1ccc(O)cc1`, for which the mutagenic call runs as follows: (Test System: AMES SALMONELLA TYPHIMURIUM, Strain/Indicator: TA97, Metabolic Activation: HAMSTER, LIVER, S-9, AROCLOR 1254 (10%), Method: PREINCUBATION) “inactive; negative”; (Test System: AMES SALMONELLA TYPHIMURIUM, Strain/Indicator: TA97, Metabolic Activation: HAMSTER, LIVER, S-9, AROCLOR 1254 (30%), Method: PREINCUBATION) “inactive; negative”; under setting [1], “inactive; negative”; (Test System: AMES SALMONELLA TYPHIMURIUM, Strain/Indicator: TA97, Metabolic Activation: RAT, LIVER, S-9, AROCLOR 1254 (10%), Method: PREINCUBATION) “inactive; negative”; (Test System: AMES SALMONELLA TYPHIMURIUM, Strain/Indicator: TA97, Metabolic Activation: RAT, LIVER, S-9, AROCLOR 1254 (30%), Method: PREINCUBATION) “inactive; negative”; (Test System: AMES SALMONELLA TYPHIMURIUM, Strain/Indicator: TA98, Metabolic Activation: HAMSTER, LIVER, S-9, AROCLOR 1254 (10%), Method: PREINCUBATION) “inactive; negative”. Moreover, the mutagenic call is “inactive; negative” (Test System: AMES SALMONELLA TYPHIMURIUM, Strain/Indicator: TA98, Metabolic Activation: HAMSTER, LIVER, S-9, AROCLOR 1254 (30%), Method: PREINCUBATION); “inactive; negative” under setting [2]; “inactive; negative” (Test System: AMES SALMONELLA TYPHIMURIUM, Strain/Indicator: TA98, Metabolic Activation: RAT, LIVER, S-9, AROCLOR 1254 (10%), Method: PREINCUBATION); “inactive; negative” (Test System: AMES SALMONELLA TYPHIMURIUM, Strain/Indicator: TA98, Metabolic Activation: RAT, LIVER, S-9, AROCLOR 1254 (30%), Method: PREINCUBATION); “inactive; negative” (Test System: AMES SALMONELLA TYPHIMURIUM, Strain/Indicator: TA100, Metabolic Activation: HAMSTER, LIVER, S-9, AROCLOR 1254 (10%), Method: PREINCUBATION); “inactive; negative” (Test System: AMES SALMONELLA TYPHIMURIUM, Strain/Indicator: TA100, Metabolic Activation: HAMSTER, LIVER, S-9, AROCLOR 1254 (30%), Method: PREINCUBATION). Further, the mutagenic call under setting [3] is “inactive; negative”; the mutagenic call (Test System: AMES SALMONELLA TYPHIMURIUM, Strain/Indicator: TA100, Metabolic Activation: RAT, LIVER, S-9, AROCLOR 1254 (10%), Method: PREINCUBATION) is “inactive; negative”; the mutagenic call (Test System: AMES SALMONELLA TYPHIMURIUM, Strain/Indicator: TA100, Metabolic Activation: RAT, LIVER, S-9, AROCLOR 1254 (30%), Method: PREINCUBATION) is “inactive; negative”; the mutagenic call (Test System: AMES SALMONELLA TYPHIMURIUM, Strain/Indicator: TA1535, Metabolic Activation: HAMSTER, LIVER, S-9, AROCLOR 1254 (10%), Method: PREINCUBATION) was “inactive; negative”; the mutagenic call (Test System: AMES SALMONELLA TYPHIMURIUM, Strain/Indicator: TA1535, Metabolic Activation: HAMSTER, LIVER, S-9, AROCLOR 1254 (30%), Method: PREINCUBATION) was “inactive; negative”; the mutagenic call under setting [4] is “inactive; negative”. For the same molecule, the mutagenic call (Test System: AMES SALMONELLA TYPHIMURIUM, Strain/Indicator: TA1535, Metabolic Activation: RAT, LIVER, S-9, AROCLOR 1254 (10%), Method: PREINCUBATION) is “inactive; negative” and the mutagenic call (Test System: AMES SALMONELLA TYPHIMURIUM, Strain/Indicator: TA1535, Metabolic Activation: RAT, LIVER, S-9, AROCLOR 1254 (30%), Method: PREINCUBATION) is “inactive; negative”.

Turning to `C/C=C(\Cl)C1=CC(=O)[C@]23C[C@H]2C(C)(C)O[C@]3(O)C1=O`, the mutagenic call (Test System: AMES SALMONELLA TYPHIMURIUM, Strain/Indicator: TA97, Metabolic Activation: NONE) was “inactive; negative”; the mutagenic call (Test System: AMES SALMONELLA TYPHIMURIUM, Strain/Indicator: TA98, Metabolic Activation: NONE) is “inactive; negative”; the mutagenic call (Test System: AMES SALMONELLA TYPHIMURIUM, Strain/Indicator: TA100, Metabolic Activation: NONE) was “inactive; negative”; the mutagenic call (Test System: AMES SALMONELLA TYPHIMURIUM, Strain/Indicator: TA102, Metabolic Activation: NONE) was “active; positive”.
